# Test results as given in patent publication US9567319B2, “Compound having higher inhibitory activity on protein kinase G and preparation method thereof” (Jenkem Technology Co., Ltd., (Tianjin), priority 2014, dated 2017).
# Values joined by “and” are separate entries in the source; they are usually repeats but may differ in a detail not shown here. Equal entries are not always repeated.
# Columns and labels:
# [1] = tested on: hyperalgesia induced by Freund's complete adjuvant (CFA) in rats; assay: Weight bearing test, CFA induced hyperalgesia in rats; assay type: in vivo, SD rats; conditions: for Weight Bearing Test Values (Mean ± SD), Baseline: pretreatment, n=8; for Weight Bearing Test Values (Mean ± SD), 15 min: 15 min post treatment; for Weight Bearing Test Values (Mean ± SD), 2 h: 2 h post treatment
# Description: Compounds 46 and JK-02A were prepared according to the disclosure of US patent application No. US2008/0176920, and compound JK-02H was prepared according to Example 1. A repeat efficacy study was carried out on the same batch of animals with a single-dose treatment followed by a washing-out period. The 14 days in life studies included two stages: a single low dose treatment assessment on the 7th day and then a single high dose treatment test on the 14th day after CFA injection. On the 7th day after CFA injection, the rats were randomly assigned to respective groups using a computer generated randomization procedure based on the body weight and the baseline values of Von Frey and weight bearing test. Animals received corresponding single dose treatments (vehicle and 3 test articles) on the 7th and 14th days after CFA injection, respectively, and the effect of the test compounds were evaluated. Hyperalgesia of all the study animals was assessed following a single low dose treatment with the test articles on day 7, while a single high dose effect of the test article was evaluated on day 14. The mechanical hyperalgesia and weight bearing were measured on day 7 and day 14 after CFA injection, followed by administration of control or test articles. Von Frey filaments and weight bearing were measured on all the study animals at three time points on day 7, and four time points on day 14. An extra time point assessment was conducted on day 14, considering the strong analgesic effect of the test articles at a higher dose noticed during the test at the 3th time point. Rats distributed body weight unequally on the CFA-injected and contra lateral paws, which was measured by a weight balance changing instrument (Bio-medical, USA). The animals were tested in a box constructed to register the weight load exerted by the hind paws by means of force plates inserted in the floor. The mean weight bearing (unit in “g”) between the CFA-injected paw and the contra-lateral paw was determined in 10 seconds. The weight bearing test of all study animals was conducted at the same time intervals as the mechanical hyperalgesia test. All the results were expressed as mean±SD. One-way analysis of variance (ANOVA) followed by a multiple comparison test were applied among the groups, p<0.05 accepted as significant.
# [2] = tested on: hyperalgesia induced by Freund's complete adjuvant (CFA) in rats; assay: Von Frey filament test, CFA induced hyperalgesia in rats; assay type: in vivo, SD rats; conditions: for Von Frey Filament Test Values (Mean ± SD), Baseline: pretreatment, n=8; for Von Frey Filament Test Values (Mean ± SD), 15 min: 15 min post treatment; for Von Frey Filament Test Values (Mean ± SD), 2 h: 2 h post treatment
# Description: Compounds 46 and JK-02A were prepared according to the disclosure of US patent application No. US2008/0176920, and compound JK-02H was prepared according to Example 1. A repeat efficacy study was carried out on the same batch of animals with a single-dose treatment followed by a washing-out period. The 14 days in life studies included two stages: a single low dose treatment assessment on the 7th day and then a single high dose treatment test on the 14th day after CFA injection. On the 7th day after CFA injection, the rats were randomly assigned to respective groups using a computer generated randomization procedure based on the body weight and the baseline values of Von Frey and weight bearing test. Animals received corresponding single dose treatments (vehicle and 3 test articles) on the 7th and 14th days after CFA injection, respectively, and the effect of the test compounds were evaluated. Hyperalgesia of all the study animals was assessed following a single low dose treatment with the test articles on day 7, while a single high dose effect of the test article was evaluated on day 14. The mechanical hyperalgesia and weight bearing were measured on day 7 and day 14 after CFA injection, followed by administration of control or test articles. Von Frey filaments and weight bearing were measured on all the study animals at three time points on day 7, and four time points on day 14. An extra time point assessment was conducted on day 14, considering the strong analgesic effect of the test articles at a higher dose noticed during the test at the 3th time point. Mechanical hyperalgesia of the left hind paw was measured before and during the course of study in all animal groups by determining withdrawal thresholds to Von Frey filament (Bioseb, France). Increasing tensile force perpendicular to the plantar surface of the paw was applied to the filaments. The threshold for paw withdrawal was calculated by taking the average of 2-3 repeated stimuli (unit in “g”). On day 7, Von Frey Filament measurements were conducted three times, at the time points of pretreatment, 15 min and 2 hours post treatment. Following a one-week washing out period, on day 14 after CFA injection, Von Frey Filament tests were performed again four times post a single high dose administration. Rats treated with vehicle or high dose test articles were measured at the time points of pretreatment, 15 min, 2 and 5 hours post treatment. All the results were expressed as mean±SD. One-way analysis of variance (ANOVA) followed by a multiple comparison test were applied among the groups, p<0.05 accepted as significant.
# [3] = day 7 after CFA, low dose groups (46 and JK-02A 10 mg/kg, JK-02H 5 mg/kg)
# [4] = day 7 after CFA, single low dose i.v. (46 and JK-02A 10 mg/kg, JK-02H 5 mg/kg)
# [5] = day 14 after CFA, high dose groups (46 and JK-02A 40 mg/kg, JK-02H 20 mg/kg)
# [6] = day 14 after CFA, single high dose i.v. (46 and JK-02A 40 mg/kg, JK-02H 20 mg/kg)
# [7] = day 14 after CFA, single high dose i.v. (46 and JK-02A 40 mg/kg, JK-02H 20 mg/kg), 5 h post treatment
# [8] = individual animal, high dose i.v. (46 and JK-02A 40 mg/kg, JK-02H 20 mg/kg)
# [9] = individual animal, low dose i.v. (46 and JK-02A 10 mg/kg, JK-02H 5 mg/kg)
# [10] = individual animal, high dose i.v. (46 and JK-02A 40 mg/kg, JK-02H 20 mg/kg), two repeated stimuli
# [11] = individual animal, low dose i.v. (46 and JK-02A 10 mg/kg, JK-02H 5 mg/kg), two repeated stimuli
compound,measurement,setting,value
CCCOc1ccc(O)c(F)c1C(=O)c1ccc(C(=O)N[C@@H]2CNC[C@H]2NC(=O)c2ccc3cn[nH]c3c2)cc1 [compound 46],"Weight Bearing Test Values (Mean ± SD), Baseline",[1]; [3],48.54 ± 7.73 g
same,"Weight Bearing Test Values (Mean ± SD), 15 min",[1]; [4],44.76 ± 8.54 g
same,"Weight Bearing Test Values (Mean ± SD), 2 h",[1]; [4],41.09 ± 8.58 g
same,"Weight Bearing Test Values (Mean ± SD), Baseline",[1]; [5],46.73 ± 5.58 g
same,"Weight Bearing Test Values (Mean ± SD), 15 min",[1]; [6],34.03 ± 5.67 g
same,"Weight Bearing Test Values (Mean ± SD), 2 h",[1]; [6],44.46 ± 11.29 g
same,"Weight Bearing Test Values (Mean ± SD), 5 h",[1]; [7],41.06 ± 6.98 g
same,"Weight Bearing Values of Individual Animal, Day 14, 15 min, Left",[1]; [8],62.4 g and 64.0 g and 61.5 g and 63.7 g and 59.2 g and 39.7 g and 52.6 g and 68.4 g
same,"Weight Bearing Values of Individual Animal, Day 14, 15 min, Right",[1]; [8],96.4 g and 104.7 g and 95.1 g and 95.7 g and 96.9 g and 71.9 g and 75.2 g and 107.8 g
same,"Weight Bearing Values of Individual Animal, Day 14, 15 min, Δ",[1]; [8],34.0 g and 40.7 g and 33.6 g and 32.0 g and 37.7 g and 32.2 g and 22.6 g and 39.4 g
same,"Weight Bearing Values of Individual Animal, Day 14, 2 h, Left",[1]; [8],59.9 g and 68.1 g and 65.7 g and 44.8 g and 56.2 g and 36.9 g and 65.4 g and 67.0 g
same,"Weight Bearing Values of Individual Animal, Day 14, 2 h, Right",[1]; [8],107.1 g and 101.0 g and 112.2 g and 110.9 g and 98.5 g and 87.3 g and 94.8 g and 107.9 g
same,"Weight Bearing Values of Individual Animal, Day 14, 2 h, Δ",[1]; [8],47.2 g and 32.9 g and 46.5 g and 66.1 g and 42.3 g and 50.4 g and 29.4 g and 40.9 g
same,"Weight Bearing Values of Individual Animal, Day 14, 5 h, Left",[1]; [8],55.9 g and 34.5 g and 56.8 g and 58.2 g and 47.3 g and 31.3 g and 41.6 g and 73.0 g
same,"Weight Bearing Values of Individual Animal, Day 14, 5 h, Right",[1]; [8],102.4 g and 85.3 g and 101.8 g and 88.4 g and 90.0 g and 66.5 g and 76.3 g and 116.4 g
same,"Weight Bearing Values of Individual Animal, Day 14, 5 h, Δ",[1]; [8],46.5 g and 50.8 g and 45.0 g and 30.2 g and 42.7 g and 35.2 g and 34.7 g and 43.4 g
same,"Weight Bearing Values of Individual Animal, Day 7, 15 min, Left",[1]; [9],47.4 g and 40.2 g and 67.4 g and 60.4 g and 40.3 g and 39.0 g and 24.3 g and 58.1 g
same,"Weight Bearing Values of Individual Animal, Day 7, 15 min, Right",[1]; [9],93.5 g and 94.1 g and 110.9 g and 89.1 g and 91.2 g and 81.7 g and 62.7 g and 112.0 g
same,"Weight Bearing Values of Individual Animal, Day 7, 15 min, Δ",[1]; [9],46.1 g and 53.9 g (2×) and 43.5 g and 28.7 g and 50.9 g and 42.7 g and 38.4 g
same,"Weight Bearing Values of Individual Animal, Day 7, 2 h, Left",[1]; [9],48.5 g and 39.0 g and 65.0 g and 66.3 g and 48.4 g and 43.4 g and 38.0 g and 54.8 g
same,"Weight Bearing Values of Individual Animal, Day 7, 2 h, Right",[1]; [9],91.5 g and 81.8 g and 102.9 g and 97.7 g and 80.7 g and 82.3 g and 81.5 g and 113.7 g
same,"Weight Bearing Values of Individual Animal, Day 7, 2 h, Δ",[1]; [9],43.0 g and 42.8 g and 37.9 g and 31.4 g and 32.3 g and 38.9 g and 43.5 g and 58.9 g
same,"First Baseline, Balance Left, individual animal","[1]; individual animal, pretreatment day 7, left (CFA-injected) hind paw",31.3 g and 27.8 g and 41.8 g and 63.2 g and 73.9 g and 49.6 g and 33.9 g and 60.4 g
same,"First Baseline, Balance Right, individual animal","[1]; individual animal, pretreatment day 7, right hind paw",83.6 g and 87.0 g and 91.8 g and 105.0 g and 114.0 g and 102.9 g and 71.5 g and 114.4 g
same,"First Baseline, Balance Δ, individual animal","[1]; individual animal, pretreatment day 7, right minus left",52.3 g and 59.2 g and 50.0 g and 41.8 g and 40.1 g and 53.3 g and 37.6 g and 54.0 g
same,"Second Baseline, Balance Left, individual animal","[1]; individual animal, pretreatment day 14, left (CFA-injected) hind paw",61.3 g and 45.0 g and 70.0 g and 51.2 g and 34.7 g and 24.8 g and 43.5 g and 65.5 g
same,"Second Baseline, Balance Right, individual animal","[1]; individual animal, pretreatment day 14, right hind paw",115.3 g and 95.2 g and 119.5 g and 104.5 g and 76.6 g and 67.1 g and 84.3 g and 107.3 g
same,"Second Baseline, Balance Δ, individual animal","[1]; individual animal, pretreatment day 14, right minus left",54.0 g and 50.2 g and 49.5 g and 53.3 g and 41.9 g and 42.3 g and 40.8 g and 41.8 g
same,"Von Frey Filament Test Values (Mean ± SD), Baseline",[2]; [3],6.81 ± 0.74 g
same,"Von Frey Filament Test Values (Mean ± SD), 15 min",[2]; [4],7.12 ± 1.20 g
same,"Von Frey Filament Test Values (Mean ± SD), 2 h",[2]; [4],7.69 ± 1.59 g
same,"Von Frey Filament Test Values (Mean ± SD), Baseline",[2]; [5],7.01 ± 0.75 g
same,"Von Frey Filament Test Values (Mean ± SD), 15 min",[2]; [6],8.17 ± 1.50 g
same,"Von Frey Filament Test Values (Mean ± SD), 2 h",[2]; [6],8.04 ± 1.83 g
same,"Von Frey Filament Test Values (Mean ± SD), 5 h",[2]; [7],7.66 ± 1.72 g
same,"Von Frey Values of Individual Animal, Day 14, 15 min",[2]; [10],7.3 g and 9.0 g and 8.3 g and 7.5 g and 9.6 g (2×) and 10.8 g and 7.0 g and 6.7 g and 8.2 g (2×) and 5.5 g and 5.6 g and 8.0 g and 10.5 g and 8.9 g
same,"Von Frey Values of Individual Animal, Day 14, 2 h",[2]; [10],5.8 g and 7.3 g and 8.2 g and 7.0 g and 6.2 g and 7.1 g and 8.9 g (2×) and 7.2 g and 5.9 g (2×) and 8.5 g and 9.7 g and 8.8 g and 11.1 g and 12.1 g
same,"Von Frey Values of Individual Animal, Day 14, 5 h",[2]; [10],6.6 g (2×) and 7.5 g (2×) and 7.1 g and 6.1 g and 5.9 g and 6.3 g and 8.8 g and 6.8 g and 5.8 g and 7.0 g and 8.7 g and 9.9 g and 11.7 g and 10.3 g
same,"Von Frey Values of Individual Animal, Day 7, 15 min",[2]; [11],7.6 g (2×) and 7.5 g (2×) and 6.8 g and 6.6 g and 5.5 g and 8.2 g and 5.9 g and 7.9 g and 4.6 g and 5.3 g and 9.0 g and 8.9 g and 7.8 g and 7.2 g
same,"Von Frey Values of Individual Animal, Day 7, 2 h",[2]; [11],9.3 g (2×) and 8.8 g and 9.4 g (2×) and 8.6 g and 6.5 g (3×) and 5.8 g and 5.9 g (2×) and 7.4 g and 5.5 g and 8.4 g and 9.8 g
same,"First Baseline, Von Frey, individual animal","[2]; individual animal, pretreatment day 7, two repeated stimuli per animal",7.4 g and 5.4 g and 6.2 g and 6.1 g (2×) and 6.4 g and 6.3 g and 5.5 g and 7.5 g and 7.0 g and 7.3 g and 6.7 g and 7.6 g (2×) and 8.1 g and 7.7 g
same,"Second Baseline, Von Frey, individual animal","[2]; individual animal, pretreatment day 14 after washing-out, two repeated stimuli per animal",7.6 g (2×) and 7.7 g and 6.4 g and 6.2 g (2×) and 5.5 g and 5.7 g and 7.1 g and 7.9 g and 7.0 g and 7.3 g and 7.2 g (2×) and 8.1 g and 7.5 g
